Experiment [1] has as its system A549 viability, CellTiter-Glo ATP luminescence, 72 h. The experiment can be described thus: A549 cell cytotoxicity, dose response, cytotoxicity control, ATP luminescence, dry powder, set 16 (AID 1053140).
Experiment in experiment [2]: as above
The conditions noted are these: A549 viability, CellTiter-Glo ATP luminescence, 72 h. (Cellular ATP, detected with luciferase, serves as a proxy for viable cell number.)

Active and inactive are the calls of the source.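 How the source made its calls: active means cell killing, with AC50 under 10 µM and within twice the top valid dose; inactive means effect in the opposite direction, and the rest.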 Some results are limits rather than exact numbers.

For the compound `CO[C@H]1CN(C)C(=O)c2cc(NC(=O)NC(C)C)ccc2OC[C@H](C)N(Cc2ccccn2)C[C@@H]1C`, the AC50 (in general, the concentration giving half of the maximal activity seen) in experiment [1] is > 100 µM (inactive). `CCCNC(=O)Nc1ccc2c(c1)OC[C@H](C)N(Cc1ccccc1)C[C@H](C)[C@@H](OC)CN(C)C2=O`: in experiment [2] (at 26 µM (top of the series)), the activity change, negative = cytotoxic was 0.334% (inactive).

Regarding `CO[C@H]1CN(C)C(=O)c2cc(NC(=O)NC(C)C)ccc2OC[C@H](C)N(Cc2ccc(-c3cccnc3)cc2)C[C@@H]1C`, the concentration at half-maximal activity (AC50) in experiment [1] was 45.7 µM. As to `CO[C@H]1CN(C)C(=O)c2cc(NC(=O)NC(C)C)ccc2OC[C@H](C)NC[C@@H]1C`, the activity change, negative = cytotoxic in experiment [2] (at 50 µM (top of the series)) is -2.18% (inactive). Consider `CO[C@H]1CN(C)C(=O)c2cc(NC(=O)NC(C)C)ccc2OC[C@H](C)N(C(=O)c2ccccc2)C[C@@H]1C`, for which the activity change, negative = cytotoxic in experiment [2] (at 50 µM (top of the series)) is -11.4% (inactive). On to `CO[C@H]1CN(C)C(=O)c2cc(Nc3c(NC4CCCC4)c(=O)c3=O)ccc2OC[C@H](C)N(Cc2ccc(-c3ccccn3)cc2)C[C@@H]1C`, for which, in experiment [1], the AC50 is > 100 µM (inactive). Turning to `CO[C@H]1CN(C)C(=O)c2cc(NC(=O)NC(C)C)ccc2OC[C@H](C)N(Cc2ccc(-c3cncnc3)cc2)C[C@@H]1C`, in experiment [1], the AC50 is > 100 µM (inactive). Regarding `CO[C@H]1CN(C)C(=O)c2cc(NC(=O)NC(C)C)ccc2OC[C@H](C)N(C(=O)Nc2ccc(-c3ccccn3)cc2)C[C@@H]1C`, the AC50 in experiment [1] was > 100 µM (inactive). Regarding `CO[C@H]1CN(C)C(=O)c2ccc(NC(=O)NC(C)C)cc2OC[C@H](C)N(Cc2ccc(-c3ccccn3)cc2)C[C@@H]1C`, in experiment [2] (at 26 µM (top of the series)), the activity change, negative = cytotoxic is 3.22% (inactive).

For the compound `CO[C@H]1CN(C)C(=O)c2cc(NC(=O)NC(C)C)ccc2OC[C@H](C)N(Cc2ccc(F)cc2)C[C@@H]1C`, the activity change, negative = cytotoxic in experiment [2] (at 50 µM (top of the series)) is -3.88% (inactive). Same read-out and setting: with `CO[C@H]1CN(C)C(=O)c2cc(NC(=O)NC(C)C)ccc2OC[C@H](C)N(Cc2cncnc2)C[C@@H]1C` the figure was -6.71% (inactive).

In the case of `CO[C@H]1CN(C)C(=O)c2cc(N)ccc2OC[C@H](C)N(Cc2ccc(-c3ccccn3)cc2)C[C@@H]1C`, the AC50 in experiment [1] is > 100 µM (inactive). Same read-out and setting: with `CO[C@H]1CN(C)C(=O)c2cc(NC(=O)OC(C)C)ccc2OC[C@H](C)N(Cc2ccc(-c3ccccn3)cc2)C[C@@H]1C` the figure was > 100 µM (inactive); with `CO[C@H]1CN(C)C(=O)c2cc(Nc3c(NC4CCCCC4)c(=O)c3=O)ccc2OC[C@H](C)N(Cc2ccc(-c3ccccn3)cc2)C[C@@H]1C`, 36.8 µM.

On to `CCC(CC)Nc1c(Nc2ccc3c(c2)C(=O)N(C)C[C@H](OC)[C@@H](C)CN(Cc2ccc(-c4ccccn4)cc2)[C@@H](C)CO3)c(=O)c1=O`, for which the AC50 in experiment [1] is 43.7 µM.

With `CCCC(=O)Nc1ccc2c(c1)OC[C@H](C)N(Cc1ccc(-c3ccccn3)cc1)C[C@H](C)[C@@H](OC)CN(C)C2=O`, the activity change, negative = cytotoxic in experiment [2] (at 26 µM (top of the series)) is 6.08% (inactive).

With `CO[C@H]1CN(C)C(=O)c2cc(Nc3ncccn3)ccc2OC[C@H](C)N(Cc2ccc(-c3ccccn3)cc2)C[C@@H]1C`, in experiment [1], the AC50 is > 100 µM (inactive). On to `CO[C@H]1CN(C)C(=O)c2cc(NC(=O)NC(C)C)ccc2OC[C@H](C)N(Cc2cccnc2)C[C@@H]1C`, for which the activity change, negative = cytotoxic in experiment [2] (at 50 µM (top of the series)) was 6.13% (inactive). `CO[C@H]1CN(C)C(=O)c2cc(NC(=O)NC(C)C)ccc2OC[C@H](C)N(C(=O)c2ccc(-c3ccccn3)cc2)C[C@@H]1C`: in experiment [2] (at 50 µM (top of the series)), the activity change, negative = cytotoxic was -11.3% (inactive).

As to `CCCC(=O)Nc1ccc2c(c1)OC[C@H](C)N(Cc1ccccc1)C[C@H](C)[C@@H](OC)CN(C)C2=O`, the activity change, negative = cytotoxic in experiment [2] (at 26 µM (top of the series)) was -0.093% (inactive). As to `CO[C@H]1CN(C)C(=O)c2cc(NC(=O)NC(C)C)ccc2OC[C@H](C)N(Cc2ccncc2)C[C@@H]1C`, in experiment [2] (at 50 µM (top of the series)), the activity change, negative = cytotoxic was 4.36% (inactive). `CO[C@H]1CN(C)C(=O)c2cc(NC(=O)C(C)C)ccc2OC[C@H](C)N(Cc2ccc(-c3ccccn3)cc2)C[C@@H]1C`: the AC50 in experiment [1] is > 100 µM (inactive). As to `CO[C@H]1CN(C)C(=O)c2ccc(NC(=O)NC(C)C)cc2OC[C@H](C)N(Cc2ccccc2)C[C@@H]1C`, the activity change, negative = cytotoxic in experiment [2] (at 26 µM (top of the series)) was 4.59% (inactive). Consider `CO[C@H]1CN(C)C(=O)c2cc(Nc3c(NC4CC4)c(=O)c3=O)ccc2OC[C@H](C)N(Cc2ccc(-c3ccccn3)cc2)C[C@@H]1C`, for which, in experiment [1], the AC50 is 25.2 µM. Turning to `CO[C@H]1CN(C)C(=O)c2cc(Nc3c(NC(C)C)c(=O)c3=O)ccc2OC[C@H](C)N(Cc2ccc(-c3ccccn3)cc2)C[C@@H]1C`, in experiment [1], the half-maximal activity concentration (AC50) is 45.3 µM. For the compound `CCCNC(=O)Nc1ccc2c(c1)OC[C@H](C)N(Cc1ccc(-c3ccccn3)cc1)C[C@H](C)[C@@H](OC)CN(C)C2=O`, the activity change, negative = cytotoxic in experiment [2] (at 26 µM (top of the series)) is -9.23% (inactive).
